According to patent US8211463B2, “Use of glycolipids as adjuvants” (Helmholtz-Zentrum Fuer Infektionsforschung GmbH, priority 2006, dated 2012):

Columns and labels:
[1] = test system: β-Gal-specific systemic IgG; test: β-Gal-specific serum IgG ELISA after i.n. or s.c. immunisation with β-Gal plus glycolipid adjuvant; type: in vivo, Balb/c mice; conditions: day 38
Experimental: Co-administration of β-Gal with 10 μg glycolipids 1, 5 and 6 induced β-Gal-specific systemic IgG responses in Balb/c mice. Balb/c mice were immunized by the i.n. or s.c. route with β-Gal alone or together with glycolipids 1, 5 and 6 three times at 2-wk intervals. 10 days after the final immunization, the immunized mice were sacrified. The levels of β-Gal-specific systemic IgG were determined in Sera of mice immunized by the i.n. (A) and s.c. (B) route. […] The parenteral administration of with β-Gal co-administered with glycolipids 1, 5 and 6 doubled the β-Galactosidase-specific IgG titer (>500000) in comparison to animals which were immunized with β-Gal alone. Bars represent mean Ab titer or amount±SE in each group. […]
Balb/c mice were immunized by the i.n. or s.c. route with β-Gal alone or together with glycolipids 5 and 6 three times at 2-wk intervals. […] The levels of β-Gal-specific systemic IgG were determined in Sera of mice immunized by the i.n. (A) and s.c. (B) route. […]
Experimental protocol: six-eight weeks-old female BALB/c (H-2d) mice were purchased from Harlan Winkelmann GmbH (Borchen, Germany) and treated in accordance with local and European Community guidelines. […] Endpoint titers were expressed as the reciprocal log 2 of the last dilution, which gave an optical density at 405 nm of 0.1 units above the values of the negative controls after 15 to 30 min of incubation.

[2] = test system: spleen cells of immunized mice; test: Splenocyte proliferation ([3H]thymidine incorporation) after in vitro restimulation with β-Gal; type: in vivo, Balb/c mice; conditions: i.n., 10 μg glycolipid, restimulation with β-Gal for 4 days
Experimental: (§1) Co-administration of β-Gal with 10 μg glycolipids 1, 5 and 6 induced a strong cellular immune responses against the β-Gal antigen in Balb/c mice. Balb/c mice were immunized by the i.n. or s.c. route with β-Gal alone or together with glycolipids 1, 5 and 6 three times at 2-wk intervals. 10 days after the final immunization, the immunized mice were sacrificed. Splenocytes of mice immunized by the i.n. (A) and s.c. (B) route were collected and cultured with different concentrations of the β-Gal-Protein for 4 days. […] Curves represent [^3H]thymidine incorporation (counts per minute, cpm) and Stimulation index (SI) in each group. Each group consists of five mice. Data are representative of three separate experiments.
as §1, with “with 20 up to 30” for “with 10”, “glycolipids” for “glycolipids 1,”, “represent [3H]thymidine incorpoaration” for “represent [^3H]thymidine incorporation”
Experimental protocol: Spleens were removed and pooled for analysis of cellular immune responses. Cells were grown in RPMI 1640 supplemented with 10% fetal calf serum, 100 U/ml of penicillin, 50 μg/ml of streptomycin, 5×10^−5 M 2-mercaptoethanol and 1 mM L-glutamine (GIBCO BRL, Karlsruhe, Germany) and maintained at 37° C. in a humidified 5% CO2 atmosphere. Spleen cell suspensions were adjusted to 5×10^6 cells/ml in complete medium, cells were seeded with 100 μl per well in a flat-bottomed 96-well microtiter plate (Nunc) and plates were incubated for 4 days. Unstimulated spleen cells were incubated in the presence of different concentrations of the new adjuvants to analyze the in vitro stimulation capacity of glycolipids 1, 5 or 6, respectively. T cellmediated immune responses were investigated at day 38 by measuring the proliferation of cells recovered from spleens after in vitro restimulation with β-Gal. Said spleen cells were obtained from vaccinated mice—said mice where immunized as described in Example 2—and incubated in the presence of different concentrations of the soluble β-Gal antigen. Each concentration was tested in triplicates. During the final 18 h of culture, 1 μCi of [^3H]thymidine (Amersham International, Freiburg, Germany) was added to each well. Cells were then harvested on paper filters (Filtermat A; Wallac, Freiburg, Germany) by using a cell harvester (Inotech, Wohlen, Switzerland), and the amount of incorporated [^3H]thymidine into the DNA of proliferating cells was determined by a β-scintillation counter (Wallac 1450, Micro-Trilux). The results are expressed as the arithmetic mean of [^3H]thymidine uptake in cpm.

β-Gal
β-Galactosidase-specific IgG titer in serum ([1]; 10 μg glycolipid + 30 μg β-Gal, three immunisations): < 1/10000 and very low antibody titers
β-Galactosidase-specific IgG titer in serum ([1]; 20 or 30 μg glycolipid + 30 μg β-Gal): < 1/10000
Stimulation index (SI), [3H]thymidine incorporation of spleen cells [2]: no effect
